One data set addresses T1, CYP450 2D6 (Homo sapiens, UniProt P10635).
T1 construct: Piramal Pharma Solutions (contract laboratory)
In words: Recombinant cytochrome P450 enzyme assay, 2D6. Conditions: highest concentration tested 10 μM. Type of data set: in vitro ADME. As for the experimental part:
(§1) A parallel artificial-membrane permeability assay (PAMPA) and mouse liver microsome (MLM), human liver microsome (HLM), aqueous solubility, Log D, protein binding, and cytochrome P450 2D6 and 3A4 assays were carried out at Piramal Pharma Solutions.

The next data set addresses Chymase (Homo sapiens, UniProt P23946). In words: Protease panel: Chymase. Type of data set: biochemical. Conditions: Table 6; 10-dose response, top 10 μM.
Data set [1] in a line: Plasma protein binding, mouse. Type of data set: in vitro ADME. Particulars: bound, read-out: Plasma protein binding in mice (%) (converted). On the procedure: as §1

T1 sequence (P10635 whole entry): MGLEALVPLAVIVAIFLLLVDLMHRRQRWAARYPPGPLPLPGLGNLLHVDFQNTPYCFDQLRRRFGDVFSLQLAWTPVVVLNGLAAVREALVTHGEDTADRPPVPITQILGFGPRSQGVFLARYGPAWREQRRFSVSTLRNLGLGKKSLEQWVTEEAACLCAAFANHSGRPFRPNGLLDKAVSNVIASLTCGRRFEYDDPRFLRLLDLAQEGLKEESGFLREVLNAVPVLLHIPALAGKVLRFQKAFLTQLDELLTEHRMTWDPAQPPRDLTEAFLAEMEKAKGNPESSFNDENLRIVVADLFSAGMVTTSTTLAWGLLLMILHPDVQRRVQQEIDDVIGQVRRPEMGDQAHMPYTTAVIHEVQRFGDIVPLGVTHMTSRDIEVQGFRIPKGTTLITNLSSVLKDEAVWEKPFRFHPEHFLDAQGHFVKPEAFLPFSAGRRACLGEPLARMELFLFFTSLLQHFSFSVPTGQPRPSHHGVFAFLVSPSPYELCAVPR
Chymase, sequence (P23946 22-247, species assumed): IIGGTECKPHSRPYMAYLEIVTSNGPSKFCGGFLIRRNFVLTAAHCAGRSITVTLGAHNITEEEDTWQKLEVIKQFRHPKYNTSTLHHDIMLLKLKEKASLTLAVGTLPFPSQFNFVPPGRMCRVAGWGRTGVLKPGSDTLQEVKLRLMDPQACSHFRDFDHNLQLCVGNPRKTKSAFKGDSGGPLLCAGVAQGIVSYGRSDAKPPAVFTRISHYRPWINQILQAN
Procedure for Chymase: Protease panel testing was carried out by Reaction Biology Corporation.

For orientation: IC50 means the midpoint of a concentration-inhibition curve. Regarding `O=C(N[C@@H](Cc1ccccn1)C(=O)N[C@@H](CCc1ccccc1)B(O)O)c1cnccn1` [Compound 58, ((R)-3-phenyl-1-((S)-2-(pyrazine-2-carboxamido)-3-(pyridin-2-yl)propanamido)propyl)boronic acid], the figures for the IC50 at CYP450 2D6 and against Chymase were over 10 µM and 5.75 µM, respectively. Also, the fraction unbound in data set [1] was 0.0954.

Values taken from publication PMC5404560, “Towards Selective Mycobacterial ClpP1P2 Inhibitors with Reduced Activity against the Human Proteasome” (Antimicrobial Agents and Chemotherapy, 2017).
